Source: US8431593B2, “Heteroaryl amide derivatives” (H. Lundbeck A/S, priority 2006, dated 2013)

Target: T1, P2X7 receptor (Homo sapiens, UniProt Q99572)
T1 construct: host or cells: SH-SY5Y
T1 sequence (Q99572 1-595): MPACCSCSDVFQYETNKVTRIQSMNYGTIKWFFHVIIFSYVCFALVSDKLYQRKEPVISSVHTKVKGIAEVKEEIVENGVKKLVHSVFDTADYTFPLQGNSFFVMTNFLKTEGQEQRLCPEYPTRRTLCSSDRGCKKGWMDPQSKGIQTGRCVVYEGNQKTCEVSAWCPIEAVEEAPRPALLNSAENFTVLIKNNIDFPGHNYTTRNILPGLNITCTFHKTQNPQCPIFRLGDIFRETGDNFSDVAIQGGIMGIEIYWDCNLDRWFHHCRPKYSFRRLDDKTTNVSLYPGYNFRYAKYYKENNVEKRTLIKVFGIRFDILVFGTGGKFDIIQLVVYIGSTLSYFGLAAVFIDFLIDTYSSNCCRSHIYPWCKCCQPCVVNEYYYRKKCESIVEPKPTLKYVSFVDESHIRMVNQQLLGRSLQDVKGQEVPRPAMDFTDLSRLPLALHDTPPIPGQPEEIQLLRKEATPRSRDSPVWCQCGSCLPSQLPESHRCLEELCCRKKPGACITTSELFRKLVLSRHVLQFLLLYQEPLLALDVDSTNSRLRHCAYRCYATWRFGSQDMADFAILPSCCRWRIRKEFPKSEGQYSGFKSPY
Test: P2X7 calcium mobilization assay, high throughput, antagonist activity (Example 4A)
Assay type: cell-based
Conditions: 50% decrease in the fluorescence response of cells exposed to 80 μM 2′(3′)-O-(4-benzoyl-benzoyl)adenosine 5′-triphosphate; Example 4A; read-out: IC50
How it was run: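 Cells plated at 100,000/well the day before were dye-loaded for 1 h, then incubated 1 h at room temperature with test compound before agonist-triggered calcium mobilization was read on FLIPR Tetra. Maximum RFU was corrected by subtracting the no-agonist control and related to the agonist-control response.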

## O=C(NCC12CC3CC(CC(C3)C1)C2)c1cccc2nc(CN3C[C@H](O)CC3=O)cn12 [Compound 538, N-(adamantan-1-ylmethyl)-2-{[(4R)-4-hydroxy-2-oxopyrrolidin-1-yl]methyl}imidazo[1,2-a]pyridine-5-carboxamide]
  IC50: < 2000 nM

## CC(C)(CO)c1cn2c(C(=O)NCC34CC5CC(CC(C5)C3)C4)cccc2n1 [Compound 539, N-(adamantan-1-ylmethyl)-2-(2-hydroxy-1,1-dimethylethyl)imidazo [1,2-a]pyridine-5-carboxamide]
  IC50: < 2000 nM

## O=C(CC12CC3CC(CC(C3)C1)C2)Nc1cccc2nc(CSc3nnc[nH]3)cn12 [Compound 540, 2-adamantan-1-yl-N-{2-[(4H-1,2,4-triazol-3-ylthio)methyl]imidazo [1,2-a]pyridin-5-yl}acetamide]
  IC50: < 2000 nM

## CCOC(=O)C(=O)N(CC)Cc1cn2c(C(=O)NCC34CC5CC(CC(C5)C3)C4)cccc2n1 [Compound 541, ethyl [({5-[(adamantan-1-ylmethyl)carbamoyl]imidazo[1,2-a]pyridin-2-yl}methyl)(ethyl)amino] (oxo)acetate]
  IC50: < 2000 nM

## O=C(NCC12CC3CC(CC(C3)C1)C2)c1cccc2nc(CSc3ncc[nH]3)cn12 [Compound 542, N-(adamantan-1-ylmethyl)-2-[(1H-imidazol-2-ylthio)methyl] imidazo [1,2-a]pyridine-5-carboxamide]
  IC50: < 2000 nM

## O=C(O)CCNC(=O)c1cn2c(C(=O)NCC34CC5CC(CC(C5)C3)C4)cccc2n1 [Compound 544, N-({5-[(adamantan-1-ylmethyl)carbamoyl)imidazo[1,2-a]pyridin-2-yl}carbonyl)-beta-alanine]
  IC50: < 2000 nM

## CC(C)CC(CNC(=O)c1cccc2nc(CCO)cn12)c1cccnc1 (stereo not drawn) [Compound 545, 2-(2-hydroxyethyl)-N-(4-methyl-2-pyridin-3-ylpentyl)imidazo[1,2-a]pyridine-5-carboxamide]
  IC50: < 2000 nM

## CCN(Cc1cn2c(C(=O)NCC34CC5CC(CC(C5)C3)C4)cccc2n1)C(=O)C(=O)O [Compound 546, [({5-[(adamantan-1-ylmethyl)carbamoyl]imidazo[1,2-a]pyridin-2-yl}methyl)(ethyl)amino] (oxo)acetic acid]
  IC50: < 2000 nM

## CC(C(=O)O)c1cn2c(C(=O)NCC34CC5CC(CC(C5)C3)C4)cccc2n1 (stereo not drawn) [Compound 547, 2-{5-[(adamantan-1-ylmethyl)carbamoyl]imidazo[1,2-a]pyridin-2-yl} propanoic acid]
  IC50: < 2000 nM

## CCN(Cc1cn2c(C(=O)NCC34CC5CC(CC(C5)C3)C4)cccc2n1)C(=O)c1ncc[nH]1 [Compound 551, N-(adamantan-1-ylmethyl)-2-{[ethyl(1H-imidazol-2-ylcarbonyl)amino]methyl}imidazo[1,2-a]pyridine-5-carboxamide]
  IC50: < 2000 nM

## CCN(Cc1cn2c(C(=O)NCC34CC5CC(CC(C5)C3)C4)cccc2n1)C(=O)c1nnc[nH]1 [Compound 552, N-(adamantan-1-ylmethyl)-2-{[ethyl(4H-1,2,4-triazol-3-ylcarbonyl)amino]methyl}imidazo[1,2-a]pyridine-5-carboxamide]
  IC50: < 2000 nM

## CCN(CCO)Cc1cn2c(C(=O)NCC34CC5CC(CC(C5)C3)C4)cccc2n1 [Compound 553, N-(adamantan-1-ylmethyl)-2-{[ethyl(2-hydroxyethyl)amino]methyl}imidazo[1,2-a]pyridine-5-carboxamide]
  IC50: < 2000 nM

## O=C(NCC12CC3CC(CC(C3)C1)C2)c1cccc2nc(C[S+]([O-])c3nnc[nH]3)cn12 (stereo not drawn) [Compound 554, N-(adamantan-1-ylmethyl)-2-[(4H-1,2,4-triazol-3-ylsulfinyl)methyl]imidazo [1,2-a]pyridine-5-carboxamide]
  IC50: < 2000 nM

## CC1(C)[C@@H]2CC[C@@H](CNC(=O)c3cccc4nc(CC(=O)N5CCNCC5)cn34)[C@H]1C2 [Compound 555, N-{[(1R,2R,5R)-6,6-dimethylbicyclo[3.1.1]hept-2-yl]methyl}-2-(2-oxo-2-piperazin-1-ylethyl)imidazo[1,2-a]pyridine-5-carboxamide]
  IC50: < 2000 nM

## CC1CNCCN1C(=O)Cc1cn2c(C(=O)NC[C@@H]3CC[C@@H]4C[C@H]3C4(C)C)cccc2n1 (stereo partly drawn) [Compound 556, N-{[(1R,2R,5R)-6,6-dimethylbicyclo[3.1.1]hept-2-yl]methyl}-2-[2-(2-methylpiperazin-1-yl)-2-oxoethyl]imidazo[1,2-a]pyridine-5-carboxamide]
  IC50: < 2000 nM

## C[C@H]1CNCCN1C(=O)Cc1cn2c(C(=O)NC[C@@H]3CC[C@@H]4C[C@H]3C4(C)C)cccc2n1 [Compound 557, N-{[(1R,2R,5R)-6,6-dimethylbicyclo[3.1.1]hept-2-yl]methyl}-2-{2-[(2S)-2-methylpiperazin-1-yl]-2-oxoethyl}imidazo [1,2-a]pyridine-5-carboxamide]
  IC50: < 2000 nM

## CC1(C)[C@@H]2CC[C@@H](CNC(=O)c3cccc4nc(CC(=O)N5C[C@@H]6C[C@H]5CN6)cn34)[C@H]1C2 [Compound 559, 2-{2-[(1S,4S)-2,5-diazabicyclo[2.2.1]hept-2-yl]-2-oxoethyl}-N-{[(1R,2R,5R)-6,6-dimethylbicyclo[3.1.1]hept-2-yl]methyl}imidazo[1,2-a]pyridine-5-carboxamide]
  IC50: < 2000 nM

## CC1(C)[C@@H]2CC[C@@H](CNC(=O)c3cccc4nc(CC(=O)N5CCCNCC5)cn34)[C@H]1C2 [Compound 560, 2-[2-(1,4-diazepan-1-yl)-2-oxoethyl]-N-{[(1R,2R,5R)-6,6-dimethylbicyclo[3.1.1]hept-2-yl]methyl}imidazo[1,2-a]pyridine-5-carboxamide]
  IC50: < 2000 nM

## C[C@@H]1CNCCN1C(=O)Cc1cn2c(C(=O)NC[C@@H]3CC[C@@H]4C[C@H]3C4(C)C)cccc2n1 [Compound 561, N-{[(1R,2R,5R)-6,6-dimethylbicyclo[3.1.1]hept-2-yl]methyl}-2-{2-[(2R)-2-methylpiperazin-1-yl]-2-oxoethyl}imidazo[1,2-a]pyridine-5-carboxamide]
  IC50: < 2000 nM

## CC(C)[C@H]1CN(C(=O)Cc2cn3c(C(=O)NC[C@@H]4CC[C@@H]5C[C@H]4C5(C)C)cccc3n2)CCN1 [Compound 562, N-{[(1R,2R,5R)-6,6-dimethylbicyclo[3.1.1]hept-2-yl]methyl}-2-{2-[(3S)-3-isopropylpiperazin-1-yl]-2-oxoethyl}imidazo[1,2-a]pyridine-5-carboxamide]
  IC50: < 2000 nM

## C[C@H]1CN(C(=O)Cc2cn3c(C(=O)NC[C@@H]4CC[C@@H]5C[C@H]4C5(C)C)cccc3n2)CCN1 [Compound 563, N-{[(1R,2R,5R)-6,6-dimethylbicyclo[3.1.1]hept-2-yl]methyl}-2-{2-[(3S)-3-methylpiperazin-1-yl]-2-oxoethyl}imidazo[1,2-a]pyridine-5-carboxamide]
  IC50: < 2000 nM

## C[C@@H]1CN(C(=O)Cc2cn3c(C(=O)NC[C@@H]4CC[C@@H]5C[C@H]4C5(C)C)cccc3n2)CCN1 [Compound 564, N-{[(1R,2R,5R)-6,6-dimethylbicyclo[3.1.1]hept-2-yl]methyl}-2-{2-[(3R)-3-methylpiperazin-1-yl]-2-oxoethyl}imidazo[1,2-a]pyridine-5-carboxamide]
  IC50: < 2000 nM

## CN(C(=O)Cc1cn2c(C(=O)NC[C@@H]3CC[C@@H]4C[C@H]3C4(C)C)cccc2n1)C1CCCNC1 (stereo partly drawn) [Compound 565, N-{[(1R,2R,5R)-6,6-dimethylbicyclo[3.1.1]hept-2-yl]methyl}-2-{2-[methyl(piperidin-3-yl)amino]-2-oxoethyl}imidazo[1,2-a]pyridine-5-carboxamide]
  IC50: < 2000 nM

## COCCN(C(=O)Cc1cn2c(C(=O)NC[C@@H]3CC[C@@H]4C[C@H]3C4(C)C)cccc2n1)C1CCNCC1 [Compound 567, N-{[(1R,2R,5R)-6,6-dimethylbicyclo[3.1.1]hept-2-yl]methyl}-2-{2-[(2-methoxyethyl) (piperidin-4-yl)amino]-2-oxoethyl} imidazo[1,2-a]pyridine-5-carboxamide]
  IC50: < 2000 nM

## CNC1CCN(C(=O)Cc2cn3c(C(=O)NC[C@@H]4CC[C@@H]5C[C@H]4C5(C)C)cccc3n2)C1 (stereo partly drawn) [Compound 568, N-{[(1R,2R,5R)-6,6-dimethylbicyclo[3.1.1]hept-2-yl]methyl}-2-{2-[3-(methylamino)pyrrolidin-1-yl]-2-oxoethyl}imidazo[1,2-a]pyridine-5-carboxamide]
  IC50: < 2000 nM

## CC(C)[C@H]1CNCCN1C(=O)Cc1cn2c(C(=O)NC[C@@H]3CC[C@@H]4C[C@H]3C4(C)C)cccc2n1 [Compound 569, N-{[(1R,2R,5R)-6,6-dimethylbicyclo[3.1.1]hept-2-yl]methyl}-2-{2-[(2S)-2-isopropylpiperazin-1-yl]-2-oxoethyl}imidazo[1,2-a]pyridine-5-carboxamide]
  IC50: < 2000 nM

## CC(C)[C@@H]1CNCCN1C(=O)Cc1cn2c(C(=O)NC[C@@H]3CC[C@@H]4C[C@H]3C4(C)C)cccc2n1 [Compound 570, N-{[(1R,2R,5R)-6,6-dimethylbicyclo[3.1.1]hept-2-yl]methyl}-2-{2-[(2R)-2-isopropylpiperazin-1-yl]-2-oxoethyl}imidazo[1,2-a]pyridine-5-carboxamide]
  IC50: < 2000 nM
